From patent US20260124222A1, “ISOTHIAZOLYLCARBOXAMIDE COMPOUNDS AND THEIR USE IN THERAPY” (HOTSPOT THERAPEUTICS, INC., priority 2022, published 2026)

Biological target: T1, Avi-tagged FL MALT-1 (Homo sapiens, UniProt Q9UDY8)
T1 construct: Avi-tagged FL MALT-1 (Pharmaron, stored at −70° C.); Avi-tag; purchased Pharmaron
T1 sequence (Q9UDY8 1-824): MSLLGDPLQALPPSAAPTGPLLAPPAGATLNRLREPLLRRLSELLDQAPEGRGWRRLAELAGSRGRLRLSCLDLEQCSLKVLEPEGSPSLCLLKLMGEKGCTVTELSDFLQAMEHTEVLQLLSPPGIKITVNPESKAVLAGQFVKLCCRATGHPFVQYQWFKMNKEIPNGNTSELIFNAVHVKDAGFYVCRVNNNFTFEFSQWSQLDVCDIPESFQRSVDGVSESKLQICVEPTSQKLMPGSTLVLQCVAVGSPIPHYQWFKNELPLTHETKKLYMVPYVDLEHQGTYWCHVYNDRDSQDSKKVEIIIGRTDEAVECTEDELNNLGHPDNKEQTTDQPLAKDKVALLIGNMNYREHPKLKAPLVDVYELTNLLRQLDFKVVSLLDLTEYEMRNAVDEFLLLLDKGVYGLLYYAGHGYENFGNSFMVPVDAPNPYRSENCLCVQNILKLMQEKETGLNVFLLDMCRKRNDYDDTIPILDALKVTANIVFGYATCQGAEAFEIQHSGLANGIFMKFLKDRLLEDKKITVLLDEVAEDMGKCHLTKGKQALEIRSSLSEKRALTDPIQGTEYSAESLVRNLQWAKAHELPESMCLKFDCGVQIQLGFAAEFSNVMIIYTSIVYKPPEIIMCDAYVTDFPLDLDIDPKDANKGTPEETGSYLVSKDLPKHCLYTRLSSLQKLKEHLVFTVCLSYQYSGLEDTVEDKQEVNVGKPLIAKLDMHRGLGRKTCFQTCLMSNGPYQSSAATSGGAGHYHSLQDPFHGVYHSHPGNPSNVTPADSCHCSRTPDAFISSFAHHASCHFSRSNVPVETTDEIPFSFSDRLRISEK
Test: MALT-1 Fluorogenic Peptide Cleavage Assay (MALT1 inhibition assay)
Type: biochemical
Conditions: Ac-LRSR-AMC peptide substrate; 30 min pre-incubation, 90 min reaction at room temperature; fluorescence
Experimental: Inhibition of MALT1 activity by a small molecule was evaluated using MALT-1 Fluorogenic Peptide Cleavage Assay. The assay utilizes a quenched AMC-labelled peptide that contains the MALT-1 recognition sequence and cleavage site (LRSR). MALT-1 mediated cleavage of the peptide relieves the quenching and leads to an increase in fluorescence at excitation (342 nm) and emission (441 nm).
The following reagents were obtained commercially and used to prepare standard reagent formulations as further described below: N-2-hydroxyethylpiperazine-N-2-ethane sulfonic acid (HEPES) (1 M, pH 7.5, stored at 4° C.), sodium citrate (stored at RT), tris(2-carboxyethyl)phosphine hydrochloride (T-CEP) (500 mM, stored at −20° C.), ethylenediaminetetraacetic acid (EDTA) (500 mM, stored at RT), dimethylsulfoxide (DMSO, stored at RT), 3-[(3-cholamidopropyl)dimethylammonio]-1-propane sulphate (CHAPS) (stored at RT), dimethylsulfoxide (DMSO), DMSO (Fisher Scientific, stored at RT), Avi-tagged FL MALT-1 (Pharmaron, stored at −70° C.), Ac-LRSR-AMC Peptide (SM Biochemicals, stored at −20° C.), and ultrapure water (MILLI-Q®).
The standard reagent formulations used in this assay were prepared and stored as follows. A 1.1 M solution of sodium citrate (161.3 g, 500 mL) was prepared and stored at room temperature. A 10% (w/v) CHAPS solution (2.0 g, 20 mL) was prepared and stored at 4° C. A 500 mM HEPES solution having pH of 6.89 was prepared from 200 mL of a 1 M HEPES solution having a pH of 7.5 using concentrated hydrochloric acid and brought to a final volume of 400 mL with MILLI-Q© H2O. The substrate, 10 mM Ac-LRSR-AMC Peptide, was prepared (10 mg, 1.370 mL DMSO) and stored at −20° C.
Compounds were plated to provide a 2% DMSO final concentration using a ProxiPlate-384 Plus F Black 384-shallow well microplate. The assay-ready plates were equilibrated to room temperature. A reaction buffer (30 mL total volume) was prepared by combining HEPES (pH 6.89, 25 mM, 1.5 mL), sodium citrate (660 mM, 18.0 mL), T-CEP (1 mM, 0.06 mL), EDTA (0.1 mM, 0.06 mL), CHAPS (0.05%, 0.15 mL), DMSO (2%, 0.6 mL), and MILLI-Q® H2O (10.23 mL; 9.63 mL when backfilled to 2% DMSO) followed by thorough mixing.
MALT-1 was thawed and kept on ice. Peptide substrate was thawed on the bench under ambient conditions. A MALT-1 enzyme working stock was prepared from Avi-tagged FL MALT-1 (40 nM in a prepared reagent volume of […]) and the reaction buffer (13.0 mL). MALT1 working stock (5 μL) was added to each well of the microplate. MALT-1 was pre-incubated with compounds for 30 minutes at room temperature.
Two substrate working stocks (Km and 10×Km) were prepared. The 1×Km substrate was prepared from Ac-LRSR-AMC Peptide (50 μM in a prepared reagent volume of […]) and the reaction buffer (6.965 mL). The 10×Km substrate was prepared from Ac-LRSR-AMC Peptide ([…] in a prepared reagent volume of 196.0 μL) and the reaction buffer (6.804 mL). The reaction was initiated by the addition of substrate working stock (5 μL, 50 μM) to Km plates and the addition of substrate working stock (5 μL 280 μM) to 10×Km plates. The plates were covered and incubated on the bench at room temperature for 90 minutes.
Fluorescence intensity was determined using a CLARIOstar microplate reader (BMG LABTECH) using the optimised AMC mode. Before taking readings, a 70% gain was applied on the neutral control well. Compound data were normalised to % Inhibition and used to plot sigmoidal concentration response curves to yield various parameters including IC50.

IC50 [nM]	Compound
≤ 400	N#Cc1cc(NC(=O)c2snc(-c3cccc4ncsc34)c2C2CC2)cnc1-n1nccn1 [I-100]
≤ 400	O=C(Nc1cnc(-n2nccn2)c(Cl)c1)c1snc(-c2ccccc2)c1I [I-1, N-(5-CHLORO-6-(2H-1,2,3-TRIAZOL-2-YL)PYRIDIN-3-YL)-4-IODO-3-PHENYLISOTHIAZOLE-5-CARBOXAMIDE]
≤ 400	Cn1ncc2c(-c3nsc(C(=O)Nc4ccnc(C(F)(F)F)c4)c3C3CC3)cccc21 [I-152, 4-cyclopropyl-3-(1-methyl-1H-indazol-4-yl)-N-(2-(trifluoromethyl)pyridin-4-yl)isothiazole-5-carboxamide]
1000 to 2500	O=C(Nc1cnc(-n2nccn2)c(Cl)c1)c1cc(-c2ccccc2)ns1 [I-2, N-(5-CHLORO-6-(2H-1,2,3-TRIAZOL-2-YL)PYRIDIN-3-YL)-3-PHENYLISOTHIAZOLE-5-CARBOXAMIDE]
≤ 400	O=C(Nc1cnc(-n2nccn2)c(Cl)c1)c1snc(-c2cccc3[nH]c(=O)ccc23)c1C(F)(F)F [I-99]
1000 to 2500	O=C(Nc1ccnc(C(F)(F)F)c1)c1snc([C@H]2CCOC2)c1C1CC1 [I-205, (R)-4-cyclopropyl-3-(tetrahydrofuran-3-yl)-N-(2-(trifluoromethyl)pyridin-4-yl)isothiazole-5-carboxamide]
400 to 1000	CNC(=O)c1cccc(-c2nsc(C(=O)Nc3ccnc(C(F)(F)F)c3)c2C2CC2)c1 [I-193, 4-cyclopropyl-3-(3-(methylcarbamoyl)phenyl)-N-(2-(trifluoromethyl)pyridin-4-yl)isothiazole-5-carboxamide]
> 2500	O=C(Nc1ccnc(C(F)(F)F)c1)c1snc([C@@H]2CCOC2)c1C1CC1 [I-204, (S)-4-cyclopropyl-3-(tetrahydrofuran-3-yl)-N-(2-(trifluoromethyl)pyridin-4-yl)isothiazole-5-carboxamide]
≤ 400	O=C(Nc1ccnc(C(F)(F)F)c1)c1snc(-c2ccc3ncsc3c2)c1C1CC1 [I-153, 3-(1,3-benzothiazol-6-yl)-4-cyclopropyl-N-[2-(trifluoromethyl)pyridin-4-yl]-1,2-thiazole-5-carboxamide]
≤ 400	N#Cc1cc(NC(=O)c2snc(-c3cccc4ncccc34)c2C2CC2)cnc1-n1nccn1 [I-123]
400 to 1000	N#Cc1c(-c2ccccc2)nsc1C(=O)Nc1cnc(-n2nccn2)c(Cl)c1 [I-4, N-(5-CHLORO-6-(2H-1,2,3-TRIAZOL-2-YL)PYRIDIN-3-YL)-4-CYANO-3-PHENYLISOTHIAZOLE-5-CARBOXAMIDE]
≤ 400	O=C(Nc1ccnc(C(F)(F)F)c1)c1snc(-c2ccc(Cl)cc2)c1C1CC1 [I-136, 3-(4-chlorophenyl)-4-cyclopropyl-N-[2-(trifluoromethyl)pyridin-4-yl]-1,2-thiazole-5-carboxamide]
≤ 400	O=C(Nc1ccnc(C(F)(F)F)c1)c1snc(-c2cccc(Cl)c2)c1C1CC1 [I-139, 3-(3-chlorophenyl)-4-cyclopropyl-N-(2-(trifluoromethyl)pyridin-4-yl)isothiazole-5-carboxamide]
≤ 400	Cc1cc(NC(=O)c2snc(-c3ccccc3)c2C2CC2)cnc1-n1ccnn1 [I-48, 4-CYCLOPROPYL-N-(5-METHYL-6-(1H-1,2,3-TRIAZOL-1-YL)PYRIDIN-3-YL)-3-PHENYLISOTHIAZOLE-5-CARBOXAMIDE]
≤ 400	O=C(Nc1ccnc(C(F)(F)F)c1)c1snc(-c2cccnc2)c1C1CC1 [I-165, 4-cyclopropyl-3-(pyridin-3-yl)-N-(2-(trifluoromethyl)pyridin-4-yl)isothiazole-5-carboxamide]
≤ 400	Cc1cccnc1-c1nsc(C(=O)Nc2cnc(-n3nccn3)c(C#N)c2)c1C1CC1 [I-112]
> 2500	CN(C)c1ccc(-c2nsc(C(=O)Nc3ccnc(C(F)(F)F)c3)c2C2CC2)cc1 [I-145, 4-cyclopropyl-3-[4-(dimethylamino)phenyl]-N-[2-(trifluoromethyl)pyridine-4-yl]-1,2-thiazole-5-carboxamide]
≤ 400	Cn1ncc2cccc(-c3nsc(C(=O)Nc4cnc(-n5nccn5)c(C#N)c4)c3C3CC3)c21 [I-101]
≤ 400	Cn1nc2cccc(-c3nsc(C(=O)Nc4ccnc(C(F)(F)F)c4)c3C3CC3)c2n1 [I-207, 4-cyclopropyl-3-(2-methyl-2H-benzo[d][1,2,3]triazol-4-yl)-N-(2-(trifluoromethyl)pyridin-4-yl)isothiazole-5-carboxamide]
≤ 400	Cc1ccc(-c2nsc(C(=O)Nc3ccnc(C(F)(F)F)c3)c2C2CC2)c2cccnc12 [I-140, 4-cyclopropyl-3-(8-methylquinolin-5-yl)-N-[2-(trifluoromethyl)pyridin-4-yl]-1,2-thiazole-5-carboxamide]
400 to 1000	Cn1ncc2cc(-c3nsc(C(=O)Nc4ccnc(C(F)(F)F)c4)c3C3CC3)ccc21 [I-168, 4-cyclopropyl-3-(1-methyl-1H-indazol-5-yl)-N-(2-(trifluoromethyl)pyridin-4-yl)isothiazole-5-carboxamide]
≤ 400	O=C(Nc1ccc(C(=O)N2CC(O)C2)c(Cl)c1)c1snc(-c2ccccc2)c1C1CC1 [I-17, N-(3-CHLORO-4-(3-HYDROXYAZETIDINE-1-CARBONYL)PHENYL)-3-PHENYL-4—(CYCLOPROPYL)ISOTHIAZOLE-5-CARBOXAMIDE]
1000 to 2500	CNC(=O)c1ccc(-c2nsc(C(=O)Nc3ccnc(C(F)(F)F)c3)c2C2CC2)cc1 [I-176, 4-cyclopropyl-3-[4-(methylcarbamoyl)phenyl]-N-[2-(trifluoromethyl)pyridin-4-yl]-1,2-thiazole-5-carboxamide]
≤ 400	Cc1cc(NC(=O)c2snc(-c3ccccc3)c2C2CC2)ccn1 [I-196, 4-cyclopropyl-N-(2-methylpyridin-4-yl)-3-phenylisothiazole-5-carboxamide]
≤ 400	O=C(Nc1ccnc(C(F)(F)F)c1)c1snc(-c2ccc3scnc3c2)c1C1CC1 [I-142, 3-(1,3-benzothiazol-5-yl)-4-cyclopropyl-N-[2-(trifluoromethyl)pyridin-4-yl]-1,2-thiazole-5-carboxamide]
≤ 400	O=C(Nc1ccnc(C(F)(F)F)c1)c1snc(-c2ccc3nccn3c2)c1C1CC1 [I-186, 4-cyclopropyl-3-{imidazo[1,2-a]pyridin-6-yl}-N-[2-(trifluoromethyl)pyridin-4-yl]-1,2-thiazole-5-carboxamide]
